Experimental data: publication PMC8485799, “Synthesis and Antiprotozoal Profile of 3,4,5‐Trisubstituted Isoxazoles” (ChemistryOpen, 2021)
Read-outs that look alike come from different tables or passages of the source.

Assays:
[1] = system: promastigote forms of Leishmania amazonensis (WHOM/BR/75/JOSEFA strain); test: Antiproliferative assay (XTT), promastigote forms, 72 h; assay type: cell-based; conditions: for IC50: Leishmania amazonensis, 72 h, read-out: L. amazonensis IC50; for SIL-F, selectivity index (Fibroblast CC50/L. amazonensis IC50): fibroblast vs promastigote; for SIL-M, selectivity index (Macrophages CC50/L. amazonensis IC50): macrophages vs promastigote
Method: (§1) The antiproliferative activity was determined in promastigote forms of Leishmania amazonensis (WHOM/BR/75/JOSEFA strain) and epimastigote forms of Trypanosoma cruzi (Y strain). The promastigote forms of L. amazonensis were cultured in Warren medium (brain heart infusion, hemin, and folic acid; pH 7.4) supplemented with 10 % fetal bovine serum (FBS) at 25 °C. The epimastigote forms of T.cruzi were cultured in LIT medium (liver infusion tryptose; hemin, and folic acid; pH 7.4) supplemented with 10 % FBS at 28 °C. Cytotoxicity in mammalian cells was determined in fibroblast line (L929) and macrophages (J774 A1). Fibroblasts were cultured in DMEM medium (pH 7.2) supplemented with 10 % FBS at 37 °C in a 5 % CO2 atmosphere. Macrophages were cultured in RPMI‐1640 (pH 7.2) medium supplemented with 10 % FBS at 37 °C in a 5 % CO2 atmosphere.
(§2) Stock solutions of the compounds were prepared in DMSO and then diluted in the respective medium.
(§3) Promastigote forms (1×10^6 parasites.mL^−1) were cultured in 96‐well plates in the presence and absence of different concentrations of compounds diluted in Warren medium supplemented with 10 % FBS and incubated for 72 h. The epimastigote forms (1×10^6 parasites.mL^−1) were cultured in 96‐well plates in the presence and absence of different concentrations of compounds diluted in LIT medium supplemented with 10 % FBS and incubated for 96 h. After treatment, the parasites were incubated with a solution of 2,3‐bis(2‐methoxy‐4‐nitro‐5‐sulfophenyl)‐2H‐tetrazolium‐5‐carboxanilide (XTT; 0.5 mg.mL^−1) and phenazine methanesulfonate activator (PMS; 0.06 mg.mL^−1) in PBS for 4 h. Then, the absorbance was read in a microplate reader (Bio Tek‐Power Wave XS) at 450 nm.[20] The percentage of viable parasites was calculated in relation to the control in order to determine the concentration that inhibits 50 % of the protozoa (IC50). The control groups of each experiment received the same experimental conditions as the treated groups (cell concentration used, temperature, and incubation time).

[2] = system: epimastigote forms of Trypanosoma cruzi (Y strain); test: Antiproliferative assay (XTT), epimastigote forms, 96 h; assay type: cell-based; conditions: for IC50: Trypanosoma cruzi, 96 h, read-out: T. cruzi IC50; for SIT-F, selectivity index (Fibroblast CC50/T. cruzi IC50): fibroblast vs epimastigote; for SIT-M, selectivity index (Macrophages CC50/T. cruzi IC50): macrophages vs epimastigote
Method: as §1, §2, §3

[3] = Cytotoxicity assay in mammalian cells (MTT), fibroblasts, 72 h; assay type: cell-based; conditions: mouse, pH 7.2, 50 % inhibition of fibroblast growth, 72 h, MTT
Method: as §1, §2
(§4) Fibroblast cell (2.5×10^5 cells.mL^−1) suspensions were prepared in DMEM medium supplemented with 10 % FBS and added to 96‐well plates. Then, the plates were incubated at 37 °C in a CO2 atmosphere for 24 h to obtain confluent cell growth. After incubation, cells were treated with different concentrations of compounds diluted in DMEM for 72 h or left untreated. Macrophage (5×10^5 cells.mL^−1) suspensions were prepared in RPMI‐1640 medium supplemented with 10 % FBS and added to 96‐well plates. Then, the plates were incubated at 37 °C in a CO2 atmosphere for 24 h to obtain confluent cell growth. After incubation, cells were treated with different concentrations of compounds diluted in RPMI‐1640 for 48 h or left untreated. After treatment, the medium was removed, and cells were incubated with MTT (2 mg.mL^−1) for 4 h. Then, DMSO was added for solubilization of the formazan and analyzed with a reading microplate reader (BIO‐TEK PowerWave XS spectrophotometer) at […].[20] The percentage of viable cells was calculated in relation to the untreated control group to determine the cytotoxic concentration in 50 % of the cells (CC50). The control groups of each experiment received the same experimental conditions as the treated groups (cell concentration used, temperature, CO2, and incubation time).

[4] = Cytotoxicity assay in mammalian cells (MTT), macrophages, 48 h; assay type: cell-based; conditions: mouse, pH 7.2, 50 % inhibition of macrophages growth, 48 h, MTT
Method: as §1, §2, §4

SMILES	IC50 ([1]; promastigote form, XTT) [µM]	SIL-F, selectivity index (Fibroblast CC50/L. amazonensis IC50) [1]	SIL-M, selectivity index (Macrophages CC50/L. amazonensis IC50) [1]	IC50 ([2]; epimastigote form, XTT) [µM]	SIT-F, selectivity index (Fibroblast CC50/T. cruzi IC50) [2]	SIT-M, selectivity index (Macrophages CC50/T. cruzi IC50) [2]	CC50 at 72 h ([3]; L929 fibroblast cells) [µM]	CC50 at 48 h ([4]; J774 A1 macrophages) [µM]	melting point [°C]	IC50 [1] [µM]	IC50 [2] [µM]	CC50 at 72 h [3] [µM]	CC50 at 48 h [4] [µM]	Selectivity index (SI), overall ([1]; span over both cell lines (fibroblast, macrophages) and both parasites (L. amazonensis, T. cruzi))
NNC(=O)c1noc(-c2ccccc2)c1CNc1ccccc1 [3 ba]	34.9 ± 2.9	5.41	3.16	39.5 ± 5.6	4.78	2.79	189 ± 9	110 ± 5.6	151.3 to 152.4	–	–	–	–	–
NNC(=O)c1noc(-c2ccccc2)c1CNc1ccc(Cl)cc1 [3 bb]	–	8.07	6.48	–	7.38	5.93	–	–	190.6 to 191.6	35.7 ± 6	39 ± 7.1	288 ± 9.9	231 ± 8.1	–
COc1ccc(NCc2c(C(=O)NN)noc2-c2ccccc2)cc1 [3 bc]	12.4 ± 1.7	15.35	14.97	15 ± 0.8	12.69	12.38	190 ± 3.7	186 ± 6.1	132.2 to 135.4	–	–	–	–	greater than 14
NNC(=O)c1noc(-c2ccc(F)cc2)c1CNc1ccccc1 [3 ca]	20.3 ± 0.9	–	8.57	22.8 ± 1.7	10.25	7.63	198 ± 5	174 ± 8.1	174 to 175	–	–	–	–	–
NNC(=O)c1noc(-c2ccc(F)cc2)c1CNc1ccc(Cl)cc1 [3 cb]	172 ± 10.4	4.67	4.04	> 200	–	–	802 ± 11.4	694 ± 10.7	178.1 to 181.2	–	–	–	–	–
COc1ccc(NCc2c(C(=O)NN)noc2-c2ccc(F)cc2)cc1 [3 cc]	59.2 ± 5.7	2.80	2.53	65.3 ± 3.6	2.54	2.29	166 ± 9.6	150 ± 4.4	171.1 to 173.6	–	–	–	–	–
NNC(=O)c1noc(-c2ccc(Cl)cc2)c1CNc1ccccc1 [3 da]	23.1 ± 1.5	13.21	11.12	27.9 ± 2.3	10.93	9.20	305 ± 11.4	257 ± 6.8	202.8 to 205.6	–	–	–	–	–
NNC(=O)c1noc(-c2ccc(Cl)cc2)c1CNc1ccc(Cl)cc1 [3 db]	59.1 ± 4.6	6.44	5.68	55.7 ± 10.2	6.84	6.03	381 ± 4.2	336 ± 5.1	175.9 to 177.8	–	–	–	–	–
COc1ccc(NCc2c(C(=O)NN)noc2-c2ccc(Cl)cc2)cc1 [3 dc]	55.8 ± 3.9	5.55	3.76	49.5 ± 2.9	6.25	4.24	310 ± 8.9	210 ± 3.5	157 to 158.8	–	–	–	–	–
O=C(N/N=C/c1ccccc1)c1noc(-c2ccc([N+](=O)[O-])cc2)c1CNc1ccccc1 [4 aa, 3‐[(2E)‐N'‐(Benzylidene)hydrazinecarbonyl]‐4‐(phenyl)aminomethyl‐5‐(4‐nitrophenyl)isoxazole]	40.7 ± 3.2	2.90	2.47	35.1 ± 4.6	–	2.86	118 ± 7.3	100 ± 6	92.6 to 94.4	–	–	–	–	–
O=C(N/N=C/c1ccccc1)c1noc(-c2ccc([N+](=O)[O-])cc2)c1CNc1ccc(Cl)cc1 [4 ab]	133 ± 8.8	3.01	2.18	147 ± 10.7	2.71	1.96	398 ± 6.9	287.4 ± 2.3	177.6 to 179	–	–	–	–	–
O=C(N/N=C/c1ccccc1)c1noc(-c2ccccc2)c1CNc1ccccc1 [4 ba]	76.8 ± 8.7	5.32	5.02	69.6 ± 3.9	5.87	5.54	409 ± 7.8	385.6 ± 3.2	169.9 to 172	–	–	–	–	–
O=C(N/N=C/c1ccccc1)c1noc(-c2ccccc2)c1CNc1ccc(Cl)cc1 [4 bb]	27.8 ± 0.7	11.57	10.98	27 ± 1.1	11.91	11.30	322 ± 9.7	305 ± 7.4	188.4 to 190.1	–	–	–	–	–
COc1ccc(NCc2c(C(=O)N/N=C/c3ccccc3)noc2-c2ccccc2)cc1 [4 bc]	21.5 ± 0.8	9.75	8.20	26.7 ± 3.9	7.85	6.61	210 ± 4.7	176 ± 6.6	197.6 to 199.6	–	–	–	–	–
O=C(N/N=C/c1ccccc1)c1noc(-c2ccc(F)cc2)c1CNc1ccccc1 [4 ca]	135 ± 11.4	6.04	5.83	149 ± 10.3	5.47	5.29	814 ± 13.5	784 ± 10.6	157.7 to 159.6	–	–	–	–	–
O=C(N/N=C/c1ccccc1)c1noc(-c2ccc(F)cc2)c1CNc1ccc(Cl)cc1 [4 cb]	87.3 ± 6.4	4.37	4.18	98.7 ± 10.1	3.86	3.69	381 ± 6.9	365 ± 8.7	167.9 to 170.5	–	–	–	–	–
